Results as given in ChEMBL document CHEMBL1132989, “A novel macromolecular prodrug concept exploiting endogenous serum albumin as a drug carrier for cancer chemotherapy” (2000).

Experiment: Dose required for antitumor efficacy tested in vivo against primary kidney tumors in murine renal carcinoma (RENCA)
Assay type: functional, Mus musculus

COc1cccc2c1C(=O)c1c(O)c3c(c(O)c1C2=O)C[C@@](O)(/C(CO)=N/NC(=O)Cc1ccc(N2C(=O)C=CC2=O)cc1)C[C@@H]3OC1CC(C)C(O)C(N)C1.Cl (stereo partly specified)
Dose: 80 mM/kg
